Reference: publication PMC9018117 (The Journal of nutritional biochemistry, 2021)
Each block holds one molecule with its values, some of them ahead of it.

Assays:
[1] = biological target: human recombinant COX-1 (Homo sapiens, UniProt P23219); assay: COX-1 activity assay using purified enzyme; format: biochemical
[2] = biological target: T1, human recombinant 5-LOX (Homo sapiens, UniProt P09917); assay: 5-LOX activity, ferrous oxidation-xylenol orange; format: biochemical
T1 sequence (P09917 1-674): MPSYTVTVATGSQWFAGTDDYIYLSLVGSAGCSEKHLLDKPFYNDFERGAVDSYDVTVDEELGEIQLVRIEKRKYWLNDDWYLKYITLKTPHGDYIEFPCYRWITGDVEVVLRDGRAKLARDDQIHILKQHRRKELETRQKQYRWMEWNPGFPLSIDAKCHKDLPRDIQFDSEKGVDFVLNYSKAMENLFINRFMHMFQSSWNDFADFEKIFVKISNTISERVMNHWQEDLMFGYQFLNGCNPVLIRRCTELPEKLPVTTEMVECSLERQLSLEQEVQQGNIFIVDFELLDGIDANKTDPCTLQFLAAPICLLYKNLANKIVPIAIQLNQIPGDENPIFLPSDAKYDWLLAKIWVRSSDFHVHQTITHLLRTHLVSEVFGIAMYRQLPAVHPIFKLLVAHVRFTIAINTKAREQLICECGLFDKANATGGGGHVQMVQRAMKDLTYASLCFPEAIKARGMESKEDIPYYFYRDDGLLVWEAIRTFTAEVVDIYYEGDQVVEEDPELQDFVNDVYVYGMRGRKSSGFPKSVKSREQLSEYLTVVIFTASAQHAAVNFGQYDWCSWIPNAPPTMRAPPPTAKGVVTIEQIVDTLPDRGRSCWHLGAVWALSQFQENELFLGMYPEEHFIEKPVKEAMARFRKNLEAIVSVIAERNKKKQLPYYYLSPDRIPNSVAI

[3] = tested on: LTB4 formation in differentiated HL-60 cells; assay: LTB4 formation in stimulated neutrophil-like differentiated HL-60 cells; format: cell-based, human; settings: for Effect on THAP-stimulated LTB4 (in words): at up to 50 μM, not shown
[4] = tested on: 5-LOX translocation in differentiated HL-60 cells; settings: cited from earlier work
[5] = tested on: 5-LOX translocation in differentiated HL-60 cells; assay: 5-LOX translocation from cytosol to nucleus by western blotting; format: cell-based, human; settings: 20 μM, 30 min preincubation
[6] = biological target: T1, human recombinant 5-LOX; assay: 5-LOX enzyme kinetics; format: biochemical; settings: for Nature of inhibition of 5-LOX: Lineweaver-Burk double reciprocal plot
[7] = tested on: COX-2-mediated PGE2 in A549 cells; assay: COX-2 activity in intact-cell assay, IL-1β-stimulated A549 cells; format: cell-based, human; settings: read-out: IC50 for inhibition of COX-2-mediated PGE2; IL-1β-stimulated A549 epithelial cells; 5 μM AA
[8] = tested on: 5-LOX; settings: read-out: IC50 for inhibition of 5-LOX; ref 10 (Pein et al); cited from earlier work
[9] = tested on: LTB4 in cells; settings: read-out: IC50 for inhibition of LTB4 in cells; ref 10 (Pein et al); cited from earlier work
[10] = substrate: CCCCC/C=C\C/C=C\C/C=C\C/C=C\CCCC(=O)O; assay: 5-LOX enzyme kinetics; format: biochemical, human; settings: other: substrate AA 5–50 μM; oxygen consumption; pH 7.4

Chain of human recombinant COX-1 (P23219 24-599): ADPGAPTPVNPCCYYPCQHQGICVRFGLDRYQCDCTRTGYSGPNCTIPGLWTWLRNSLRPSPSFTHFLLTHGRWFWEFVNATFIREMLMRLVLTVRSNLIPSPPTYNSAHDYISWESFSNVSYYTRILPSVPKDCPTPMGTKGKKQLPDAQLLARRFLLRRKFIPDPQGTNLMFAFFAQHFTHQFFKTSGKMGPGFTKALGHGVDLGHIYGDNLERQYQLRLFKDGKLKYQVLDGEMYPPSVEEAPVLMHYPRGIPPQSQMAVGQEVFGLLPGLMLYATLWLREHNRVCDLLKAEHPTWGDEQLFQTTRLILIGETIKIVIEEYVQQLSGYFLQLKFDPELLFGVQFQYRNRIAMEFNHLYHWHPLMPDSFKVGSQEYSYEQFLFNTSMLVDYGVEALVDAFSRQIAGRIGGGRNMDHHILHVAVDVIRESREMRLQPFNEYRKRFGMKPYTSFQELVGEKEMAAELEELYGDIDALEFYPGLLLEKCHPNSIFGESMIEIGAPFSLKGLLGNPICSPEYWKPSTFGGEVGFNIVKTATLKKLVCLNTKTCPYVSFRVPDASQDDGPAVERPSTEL

Molecule: CC(C)=CCC/C(C)=C/CC/C(C)=C/CC[C@]1(C)CCc2cc(O)c(C)c(C)c2O1 [γTE, γ-tocotrienol]
IC50 [2]: 4300 nM
Effect on A23187-stimulated 5-LOX translocation (in words) [4]: modestly blocked
Impact on THAP-induced 5-LOX translocation (in words) [5]: did not show any significant impact
IC50 [1]: 1000 to 2500 nM

Molecule: Cc1cc(O)cc2c1O[C@](C)(CCC[C@H](C)CCC[C@H](C)CCCC(C)C)CC2 [δT, δ-tocopherol]
Effect on THAP-stimulated LTB4 (in words) [3]: no significant effect

Molecule: CC(C)=CCC/C(C)=C/CC/C(C)=C/CC[C@]1(C)CCc2cc(O)cc(C)c2O1 [δTE, δ-tocotrienol]
Ki [6]: 2200 nM
Nature of inhibition of 5-LOX [6]: competitive inhibitor
IC50 [2]: 4300 nM
Effect on A23187-stimulated LTB4 (in words) ([3]; neutrophil-like HL-60 cells, data not shown): inhibited
Impact on THAP-induced 5-LOX translocation (in words) [5]: did not show any significant impact
IC50 [1]: 1000 to 2500 nM

Molecule: C/C(=C\CC/C(C)=C/CC[C@]1(C)CCc2cc(O)cc(C)c2O1)CC/C=C(\C)C(=O)O [δTE-13’-COOH, δTE-13’-carboxychromanol]
IC50 [7]: 2500 to 5000 nM
IC50 [9]: ~260 nM
Impact on THAP-induced 5-LOX translocation (in words) [5]: did not show any significant impact

B1: human recombinant 5-LOX (Homo sapiens) (protein)
chain: MPSYTVTVATGSQWFAGTDDYIYLSLVGSAGCSEKHLLDKPFYNDFERGAVDSYDVTVDEELGEIQLVRIEKRKYWLNDDWYLKYITLKTPHGDYIEFPCYRWITGDVEVVLRDGRAKLARDDQIHILKQHRRKELETRQKQYRWMEWNPGFPLSIDAKCHKDLPRDIQFDSEKGVDFVLNYSKAMENLFINRFMHMFQSSWNDFADFEKIFVKISNTISERVMNHWQEDLMFGYQFLNGCNPVLIRRCTELPEKLPVTTEMVECSLERQLSLEQEVQQGNIFIVDFELLDGIDANKTDPCTLQFLAAPICLLYKNLANKIVPIAIQLNQIPGDENPIFLPSDAKYDWLLAKIWVRSSDFHVHQTITHLLRTHLVSEVFGIAMYRQLPAVHPIFKLLVAHVRFTIAINTKAREQLICECGLFDKANATGGGGHVQMVQRAMKDLTYASLCFPEAIKARGMESKEDIPYYFYRDDGLLVWEAIRTFTAEVVDIYYEGDQVVEEDPELQDFVNDVYVYGMRGRKSSGFPKSVKSREQLSEYLTVVIFTASAQHAAVNFGQYDWCSWIPNAPPTMRAPPPTAKGVVTIEQIVDTLPDRGRSCWHLGAVWALSQFQENELFLGMYPEEHFIEKPVKEAMARFRKNLEAIVSVIAERNKKKQLPYYYLSPDRIPNSVAI
Km [10]: 2.1 µM

Further lines, with some results ahead:

IC50 [1]: ~12000 nM
Molecule: Cc1c(C)c2c(c(C)c1O)CC[C@@](C)(CCC[C@H](C)CCC[C@H](C)CCCC(C)C)O2 [αT, α-tocopherol]

IC50 [2]: > 50000 nM
Molecule: Cc1c(O)cc2c(c1C)OC(C)(CCC(=O)O)CC2 (stereo not drawn) [γ-CEHC, 2-(β-carboxyethyl)-6-hydroxychroman]

IC50 [1]: 1000 to 2500 nM
Molecule: Cc1c(O)cc2c(c1C)O[C@](C)(CCC[C@H](C)CCC[C@H](C)CCCC(C)C)CC2 [γT, γ-tocopherol]
Effect on THAP-stimulated LTB4 (in words) [3]: no significant effect

Nature of inhibition of 5-LOX [6]: competitive inhibitor
IC50 [7]: 2500 to 5000 nM
Molecule: Cc1cc(O)cc2c1OC(C)(CCCC(C)CCCC(C)CCCC(C)C(=O)O)CC2 (centres unmarked) [δT-13’-COOH, δT-13’-carboxychromanol]
Impact on THAP-induced 5-LOX translocation (in words) [5]: did not show any significant impact
